# Measured values: ChEMBL document CHEMBL1201862, “PubChem BioAssay data set” (2004)
# The source made the active and inactive calls.
# Key:
# J774.A1 = experiment: Confirmation of image-based Screening Assay for Inhibitors of Phagocytosis. [Related pubchem assays (depositor defined):AID1029, AID1643]; assay type: functional, cell-based; details: Mus musculus
# [1] = HEK-293T viability loss after treatment – luminescence, T-cell screen hits, cytotoxicity control for TCR NF-kB inhibitor project, dose response (AID 489026); assay type: functional, cell-based;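 further: cells exposed to compound about 14 hours before the viability readout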
# [2] = molecular target: T1, RNA-editing ligase 1, mitochondrial (Trypanosoma brucei brucei, UniProt P86926); experiment: inhibition of trypanosome RNA editing ligase – biochemical, fluorescence, Trypanosoma brucei, dose response (AID 1117295); assay type: functional
# T1 sequence (P86926 whole entry): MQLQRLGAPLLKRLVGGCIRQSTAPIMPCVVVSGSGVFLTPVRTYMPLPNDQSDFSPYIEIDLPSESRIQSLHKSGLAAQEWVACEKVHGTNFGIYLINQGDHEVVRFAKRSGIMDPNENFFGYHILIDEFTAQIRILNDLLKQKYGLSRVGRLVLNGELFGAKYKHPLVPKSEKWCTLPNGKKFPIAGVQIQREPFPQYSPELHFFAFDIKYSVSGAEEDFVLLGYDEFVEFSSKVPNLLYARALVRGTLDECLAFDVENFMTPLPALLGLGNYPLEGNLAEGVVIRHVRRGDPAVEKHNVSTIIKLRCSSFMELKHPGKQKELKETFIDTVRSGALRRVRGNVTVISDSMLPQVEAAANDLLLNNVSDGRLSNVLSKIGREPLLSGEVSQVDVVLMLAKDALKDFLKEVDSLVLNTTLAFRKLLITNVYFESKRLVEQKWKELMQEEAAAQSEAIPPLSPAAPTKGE
# [3] = molecular target: T2, Short transient receptor potential channel 4 (Mus musculus, UniProt Q9QUQ5); experiment: block of DAMGO-driven TRPC4 calcium entry – cell-based, HEK293 TRPC4/mu-opioid, Fluo-4 calcium, dose response (AID 434942); assay type: functional;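 further: potency of inhibitors blocking the TRPC4 calcium response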
# T2 sequence (Q9QUQ5 whole entry): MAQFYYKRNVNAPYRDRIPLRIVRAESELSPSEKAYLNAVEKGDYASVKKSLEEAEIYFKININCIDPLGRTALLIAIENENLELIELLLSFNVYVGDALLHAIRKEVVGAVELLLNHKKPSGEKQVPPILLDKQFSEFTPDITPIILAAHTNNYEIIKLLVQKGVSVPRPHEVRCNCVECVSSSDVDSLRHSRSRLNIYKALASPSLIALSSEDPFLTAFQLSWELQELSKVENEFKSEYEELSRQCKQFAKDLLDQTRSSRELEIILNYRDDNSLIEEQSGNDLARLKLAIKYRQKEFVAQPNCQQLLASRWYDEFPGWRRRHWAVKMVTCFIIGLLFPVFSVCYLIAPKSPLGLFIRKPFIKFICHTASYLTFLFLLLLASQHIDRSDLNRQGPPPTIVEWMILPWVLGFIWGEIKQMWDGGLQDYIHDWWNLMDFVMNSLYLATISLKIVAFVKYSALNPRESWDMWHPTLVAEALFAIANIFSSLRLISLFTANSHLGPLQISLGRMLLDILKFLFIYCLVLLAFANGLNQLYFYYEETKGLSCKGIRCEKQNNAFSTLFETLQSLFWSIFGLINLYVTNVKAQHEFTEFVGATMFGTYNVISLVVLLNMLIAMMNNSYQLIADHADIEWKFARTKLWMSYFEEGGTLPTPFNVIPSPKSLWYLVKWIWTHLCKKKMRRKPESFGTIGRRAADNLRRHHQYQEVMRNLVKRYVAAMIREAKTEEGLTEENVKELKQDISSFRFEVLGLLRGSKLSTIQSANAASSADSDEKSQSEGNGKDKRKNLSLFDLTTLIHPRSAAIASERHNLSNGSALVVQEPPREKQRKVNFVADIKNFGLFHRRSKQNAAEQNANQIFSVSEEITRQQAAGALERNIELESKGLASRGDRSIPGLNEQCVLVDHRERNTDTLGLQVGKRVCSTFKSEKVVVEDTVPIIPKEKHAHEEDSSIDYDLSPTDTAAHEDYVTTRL
# [4] = molecular target: DNA repair protein RAD52 homolog (Homo sapiens, UniProt P43351); assay type: functional, biochemical
# [5] = molecular target: G-protein coupled receptor 55 (Homo sapiens, UniProt Q9Y2T6); experiment: selective activators of receptor GPR55 – imaging, U2OS cells, beta-arrestin-GFP redistribution, primary screen (AID 1961); assay type: functional
# [6] = molecular target: T3, Small ubiquitin-related modifier 1 (Homo sapiens, UniProt P63165); experiment: SUMO1 protein interaction blockers, potency – biochemical, fluorescence polarization, uHTS hits, dose response (AID 624382); assay type: functional; details: read-out: IC50_Mean
# Protein RecA = molecular target: T4, Protein RecA (Mycobacterium tuberculosis, UniProt P9WHJ3); experiment: Fluorescence Cell-Free Homogeneous Dose Retest to Identify Inhibitors of RecA-Intein Splicing Activity. [Related pubchem assays (depositor defined):AID2097, AID2223, AID489010, AID492950]; assay type: functional
# T4 sequence (P9WHJ3 whole entry): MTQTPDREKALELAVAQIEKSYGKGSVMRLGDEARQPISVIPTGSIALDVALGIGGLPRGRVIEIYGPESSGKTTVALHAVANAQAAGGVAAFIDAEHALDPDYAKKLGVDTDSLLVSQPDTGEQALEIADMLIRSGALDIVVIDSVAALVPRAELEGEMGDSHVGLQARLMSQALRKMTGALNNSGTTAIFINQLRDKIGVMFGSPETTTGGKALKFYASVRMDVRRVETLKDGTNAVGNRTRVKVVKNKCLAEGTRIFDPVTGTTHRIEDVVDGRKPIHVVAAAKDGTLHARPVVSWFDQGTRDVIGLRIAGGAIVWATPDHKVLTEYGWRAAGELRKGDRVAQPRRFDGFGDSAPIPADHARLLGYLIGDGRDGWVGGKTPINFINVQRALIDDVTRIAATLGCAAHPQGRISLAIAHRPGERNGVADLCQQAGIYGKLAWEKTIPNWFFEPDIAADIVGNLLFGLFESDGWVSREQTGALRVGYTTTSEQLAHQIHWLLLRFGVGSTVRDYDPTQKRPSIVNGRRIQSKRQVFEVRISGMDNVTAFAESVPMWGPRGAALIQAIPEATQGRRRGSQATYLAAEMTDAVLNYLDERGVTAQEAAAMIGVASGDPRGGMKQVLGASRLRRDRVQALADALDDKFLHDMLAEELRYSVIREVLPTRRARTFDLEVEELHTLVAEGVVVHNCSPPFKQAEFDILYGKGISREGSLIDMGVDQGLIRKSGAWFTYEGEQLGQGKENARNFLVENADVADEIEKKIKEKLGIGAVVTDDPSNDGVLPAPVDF
# [7] = CCR5-tropic HIV-1 fusion blockers – cell-based, CCR5-tropic Env, dose response (AID 2279); assay type: functional
# [8] = molecular target: T3, Small ubiquitin-related modifier 1; experiment: SUMO1 protein-protein binding blockers, potency – biochemical, FRET, dose response (AID 624383); assay type: functional; details: read-out: IC50_Mean
# [9] = molecular target: T5, Replicative DNA helicase DnaB (Mycobacterium tuberculosis, UniProt P9WMR3); experiment: DnaB intein splicing inhibitors, dose response, biochemical, cell-free fluorescence (AID 449749); assay type: functional
# T5 sequence (P9WMR3 whole entry): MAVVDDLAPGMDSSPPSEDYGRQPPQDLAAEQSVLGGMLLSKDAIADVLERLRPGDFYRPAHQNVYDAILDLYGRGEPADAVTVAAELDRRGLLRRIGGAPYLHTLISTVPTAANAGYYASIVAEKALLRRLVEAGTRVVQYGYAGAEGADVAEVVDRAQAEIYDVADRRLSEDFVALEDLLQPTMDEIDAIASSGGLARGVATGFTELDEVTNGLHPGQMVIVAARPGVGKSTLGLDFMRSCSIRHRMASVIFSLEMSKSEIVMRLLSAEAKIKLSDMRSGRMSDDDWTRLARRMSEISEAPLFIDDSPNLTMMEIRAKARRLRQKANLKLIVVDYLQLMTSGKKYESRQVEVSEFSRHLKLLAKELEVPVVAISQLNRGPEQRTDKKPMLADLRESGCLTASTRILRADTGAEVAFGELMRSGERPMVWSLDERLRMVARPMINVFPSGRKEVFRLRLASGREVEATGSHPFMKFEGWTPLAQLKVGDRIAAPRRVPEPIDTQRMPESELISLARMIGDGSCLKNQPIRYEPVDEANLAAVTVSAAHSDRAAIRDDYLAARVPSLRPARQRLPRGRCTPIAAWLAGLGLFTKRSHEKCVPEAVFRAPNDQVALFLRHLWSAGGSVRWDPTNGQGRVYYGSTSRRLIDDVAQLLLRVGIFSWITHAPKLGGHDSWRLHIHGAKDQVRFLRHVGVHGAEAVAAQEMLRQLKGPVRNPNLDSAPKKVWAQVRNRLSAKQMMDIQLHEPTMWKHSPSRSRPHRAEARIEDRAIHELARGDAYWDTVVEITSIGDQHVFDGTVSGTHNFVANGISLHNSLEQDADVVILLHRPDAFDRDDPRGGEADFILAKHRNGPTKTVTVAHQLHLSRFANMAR
# Vero = experiment: viability of Vero cells under compound – cytotoxicity control for flavivirus capping enzyme inhibitors (AID 588742); assay type: functional; details: Chlorocebus sabaeus
# [10] = molecular target: T6, Small ubiquitin-related modifier 2 (Homo sapiens, UniProt P61956); experiment: SUMO2 binding disruption by SUMO1 hits – biochemical, FRET, human SUMO2, uHTS hits, selectivity assay for SUMO1 interaction inhibitor project, dose response (AID 624384); assay type: functional; details: read-out: IC50_Mean
# Genome polyprotein = Genome polyprotein (dengue virus type 2, UniProt P29990); experiment: flavivirus cap methylation enzyme inhibition – biochemical, confirmation dose response, primary screen (AID 588689); assay type: functional
# Troponin, cardiac muscle = Troponin, cardiac muscle (Homo sapiens, UniProt P19429+P45379+P63316); experiment: compounds desensitizing RTF to calcium – biochemical, fluorescence, cardiac regulated thin filaments, triplicate IC50, dose response (AID 504742); assay type: protein-complex assay
# [11] = molecular target: T6, Small ubiquitin-related modifier 2; experiment: disruption of SUMO2 interaction with SIM peptide – biochemical, fluorescence polarization, uHTS hits, selectivity assay for SUMO1 interaction inhibitor project, dose response (AID 624385); assay type: functional; details: read-out: IC50_Mean
# [12] = molecular target: Dual specificity tyrosine-phosphorylation-regulated kinase 1A (Rattus norvegicus, UniProt Q63470); assay type: biochemical, Homo sapiens
# [13] = molecular target: Delta-type opioid receptor (Homo sapiens, UniProt P41143); experiment: SAR Analysis of Antagonists of the DOR Receptor using an Image-Based Assay - Set 3. [Related pubchem assays (depositor defined):AID1777, AID1785]; assay type: functional;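 further: U2OS cells expressing DOR1 and beta-arrestin GFP stimulated with 100 nM SNC80; imaging of GFP-tagged beta-arrestin moving into spots after receptor activation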
# [14] = molecular target: T7, Kappa-type opioid receptor (Homo sapiens, UniProt P41145); experiment: SAR analysis of small molecule antagonists of the kappa opioid receptor via a luminescent beta-arrestin assay - Set 3. [Related pubchem assays (depositor defined):AID1777, AID1778, AID1785, AID1786, AID1966, AID2133, AID2136, AID2285, AID2495]; assay type: functional
# Mu-type opioid receptor = Mu-type opioid receptor (Homo sapiens, UniProt P35372); experiment: SAR Analysis of Antagonists of the MOR Receptor using an Image-Based Assay - Set 3. [Related pubchem assays (depositor defined):AID1777, AID1785, AID1786, AID1966, AID2133, AID2136, AID2284, AID2285, AID2420]; assay type: functional
# [15] = molecular target: T7, Kappa-type opioid receptor; experiment: SAR analysis of small molecule antagonists of the kappa opioid receptor via a luminescent beta-arrestin assay - Set 6. [Related pubchem assays (depositor defined):AID1777, AID1778, AID1785, AID1786, AID1966, AID2133, AID2136, AID2285]; assay type: functional
# [16] = molecular target: T7, Kappa-type opioid receptor; experiment: SAR analysis of Antagonists of the Kappa Opioid Receptor (KOR) using an Image-Based Assay - Set 4. [Related pubchem assays (depositor defined):AID1777, AID1785]; assay type: functional
# Phosphomannomutase 2 = Phosphomannomutase 2 (Homo sapiens, UniProt O15305); experiment: Counter screen SAR assay for PMM2 inhibitors via a fluorescence intensity assay. [Related pubchem assays (depositor defined):AID1545, AID1574]
# [17] = molecular target: T8, Mannose-6-phosphate isomerase (Homo sapiens, UniProt P34949); experiment: phosphomannose isomerase inhibition – biochemical, fluorescence intensity, confirmation (AID 1535)
# T8 sequence (P34949 whole entry): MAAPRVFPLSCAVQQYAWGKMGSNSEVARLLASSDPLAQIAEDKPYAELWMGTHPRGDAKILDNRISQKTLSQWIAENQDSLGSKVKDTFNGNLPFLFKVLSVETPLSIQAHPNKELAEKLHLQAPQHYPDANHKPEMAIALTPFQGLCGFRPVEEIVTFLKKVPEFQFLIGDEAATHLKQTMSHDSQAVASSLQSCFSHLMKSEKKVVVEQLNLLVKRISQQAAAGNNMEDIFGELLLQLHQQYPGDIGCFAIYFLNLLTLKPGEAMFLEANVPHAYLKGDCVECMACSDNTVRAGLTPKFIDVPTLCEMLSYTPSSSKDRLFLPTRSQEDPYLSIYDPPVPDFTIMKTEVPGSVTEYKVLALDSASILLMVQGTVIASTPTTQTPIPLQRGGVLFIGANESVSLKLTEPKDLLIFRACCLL
smiles,measurement,setting,value
Cc1cccc(N2CCN(C(=O)c3ccc(CS(=O)(=O)c4ccccc4C)o3)CC2C)c1 (centres undefined),IC50,J774.A1,0.421 µM (active)
same,IC50,[1],19.5 µM (active)
CCCCCC[N+](C)(C)CC/C=C1/c2ccccc2Sc2ccc(Cl)cc21,IC50,[2],> 96.6 µM (inactive)
same,EC50,[3],0.299 µM (active)
same,AC50,[4],10.2 µM (active)
CCN(CC)C(=O)CC(c1ccc2c(c1)OCO2)c1c(OC)cc(OC)c2c(-c3ccccc3)cc(=O)oc12 (centres undefined),EC50,[5],2.72 µM (active)
O=[N+]([O-])c1cc([N+](=O)[O-])c2oc(-c3ccccc3)c(Br)c2c1O,IC50,[6],4.09 µM (active)
same,EC50,Protein RecA,111 µM (active)
same,IC50,[7],16.3 µM (active)
same,IC50,[8],50.9 µM (inactive)
same,AC50,[9],3.08 µM (active)
same,CC50,Vero,17.9 µM (active)
same,IC50,[10],> 66 µM (inactive)
same,IC50,Genome polyprotein,43.8 µM (active)
same,IC50,"Troponin, cardiac muscle",> 23.8 µM (inactive)
same,IC50,[11],3.44 µM (active)
same,AC50,[12],1.94 µM (active)
Cc1ccnc2c1n1cccc1c(=O)n2CC(=O)NCCCN1CCN(c2ccc(Cl)cc2)CC1,IC50,[13],> 32 µM (inactive)
same,IC50,[14],0.363 µM (active)
same,IC50,Mu-type opioid receptor,> 32 µM (inactive)
same,IC50,[15],1.01 µM (active)
same,IC50,[16],0.0696 µM (active)
Cc1csc(-n2sc3ccccc3c2=O)n1,IC50,Phosphomannomutase 2,> 100 µM (inactive)
same,IC50,[17],> 50 µM (inactive)
